Target: PRMT5-MEP50 enzyme complex (Homo sapiens (Human), UniProt O14744)
Experiment: PRMT5 enzyme activity in vitro assay (methylation of histone H4R3, ELISA absorbance at 450 nm)
Type: biochemical
Conditions: SAM, histone H4 peptide, room temperature 2 hours, 8 points from 10 μM to 0.128 nM
Protocol: Method for Measuring Enzyme Activity
In vitro assay: PRMT5-MEP50 enzyme complex, cofactor S-adenosylmethionine (SAM) and histone H4 peptide were reacted in vitro, and methylation of arginine (H4R3)—which is the third amino acid of histone H4—was measured in order to measure the enzyme activity of PRMT5.
Reagents: PRMT5-MEP50 enzyme complex (Catalog No. 51045), blocking buffer (52100-B), histone methyltransferase reaction buffer 2 (4×HMT assay buffer 2, Catalog No. 52170), and primary antibody (primary antibody 4-3, Catalog No. 52150) were purchased from BPS Bioscience (USA). The histone H4 peptide (1-20 amino acids) was custom made by Komabiotech (Korea) and used. S-adenosylmethionine was purchased from NEB (New England Biolabs, USA, Catalog No. B9003S). Plates for coating histone H4 peptide, washing buffer and color development reagent were purchased from the following vendors: Plate (Immobilizer™-Amino Plate, NUNC, Denmark, Catalog No. 436023), carbonate-bicarbonate buffer (Sigma-Aldrich, USA, Catalog No. C3041), washing buffer (10×TBST, Biosesang, Korea, Catalog No. T2005), TMB ELISA substrate (Abcam, UK, Catalog No. ab210902), horseradish peroxidase (HRP)-conjugated antibody (Abcam, UK, Catalog No. ab6721).
Experimental procedure: The histone H4 peptide was diluted with carbonate-bicarbonate buffer and prepared to 100 μg/mL, and then dispensed onto the plate per 100 μL and reacted at 37° C. for 1 hour. PRMT5-MEP50 enzyme complex and S-adenosylmethionine were diluted with histone methyltransferase reaction buffer to prepare 5 μg/mL and 2 μM, respectively, and then 20 μL of PRMT5-MEP50 enzyme complex and 25 μL of S-adenosylmethionine were dispensed onto the plate prepared above. 5 μL of the compound diluted with 10% dimethyl sulfoxide solution was added thereto and reacted at room temperature for 2 hours (final volume=50 μL). The concentration of the compound was diluted 1:5 from 10 μM until the lowest concentration of 0.128 nM, and 8 points were used for the test. After preparing the primary antibody by diluting 1:2000 with blocking buffer, 100 μL was added to the plate and reacted at room temperature for 1 hour. After preparing horseradish peroxidase-conjugated antibody by diluting 1:10,000 with blocking buffer, 100 μL was added to the plate and reacted at room temperature for 1 hour. 100 μL of TMB substrate was added and reacted for 3 minutes at room temperature, and 100 μL of 1 N sulfuric acid was then added to terminate the reaction. Then, the absorbance at 450 nm was measured to calculate the IC50 value of the compound. (+++: 1 to 100 nM, ++: greater than 100 to 1,000 nM, +: greater than 1,000 to 10,000 nM)

PRMT5-MEP50 enzyme complex, sequence (O14744 2-637): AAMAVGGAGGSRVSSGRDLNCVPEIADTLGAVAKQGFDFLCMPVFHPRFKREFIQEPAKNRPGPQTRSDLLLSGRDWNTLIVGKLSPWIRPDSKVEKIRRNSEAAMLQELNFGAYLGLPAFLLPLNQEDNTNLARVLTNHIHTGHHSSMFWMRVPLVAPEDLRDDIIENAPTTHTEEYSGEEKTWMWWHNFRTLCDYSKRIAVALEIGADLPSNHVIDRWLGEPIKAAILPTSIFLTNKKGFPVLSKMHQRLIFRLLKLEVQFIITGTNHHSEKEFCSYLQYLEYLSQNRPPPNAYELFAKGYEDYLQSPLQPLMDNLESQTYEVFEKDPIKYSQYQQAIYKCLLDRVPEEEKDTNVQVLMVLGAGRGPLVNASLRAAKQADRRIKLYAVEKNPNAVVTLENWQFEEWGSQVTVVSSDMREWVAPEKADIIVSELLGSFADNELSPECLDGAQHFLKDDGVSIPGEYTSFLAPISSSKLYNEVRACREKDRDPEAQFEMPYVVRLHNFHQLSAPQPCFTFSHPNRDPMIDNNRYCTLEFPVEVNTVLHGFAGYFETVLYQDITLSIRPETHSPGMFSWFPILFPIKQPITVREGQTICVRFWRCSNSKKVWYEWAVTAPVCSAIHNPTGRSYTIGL
PRMT5-MEP50 enzyme complex, sequence (Q9BQA1 2-342 partner): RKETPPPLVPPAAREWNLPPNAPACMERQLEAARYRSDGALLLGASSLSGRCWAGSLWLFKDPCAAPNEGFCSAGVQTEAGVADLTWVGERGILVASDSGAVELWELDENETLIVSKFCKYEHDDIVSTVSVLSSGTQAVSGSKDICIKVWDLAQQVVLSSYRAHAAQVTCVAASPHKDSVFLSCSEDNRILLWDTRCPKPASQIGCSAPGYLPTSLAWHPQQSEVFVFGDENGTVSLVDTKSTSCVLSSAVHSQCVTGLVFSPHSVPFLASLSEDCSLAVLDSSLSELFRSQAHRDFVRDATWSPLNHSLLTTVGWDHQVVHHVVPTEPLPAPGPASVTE

Row | IC50 | SMILES
1 | 100 to 1000 nM | CC(=O)N1CCN(Cc2ccc3c(c2)OCCN(C[C@H](O)CN2CCc4ccccc4C2)C3=O)CC1 [Example 53, 8-[(4-acetylpiperazin-1-yl)methyl]-4-[(2R)-3-(3,4-dihydro-1H-isoquinolin-2-yl)-2-hydroxy-propyl]-2,3-dihydro-1,4-benzoxazepin-5-one]
2 | 1 to 100 nM | CN1CCN(Cc2ccc3c(c2)OCCN(C[C@H](O)CN2CCc4ccccc4C2)C3=O)CC1 [Example 54, 4-[(2R)-3-(3,4-dihydro-1H-isoquinolin-2-yl)-2-hydroxy-propyl]-8-[(4-methylpiperazin-1-yl)methyl]-2,3-dihydro-1,4-benzoxazepin-5-one]
3 | 100 to 1000 nM | O=C1c2ccc(CN3CC4CC3CO4)cc2OCCN1C[C@H](O)CN1CCc2ccccc2C1 (stereo partly drawn) [Example 55, 4-[(2R)-3-(3,4-dihydro-1H-isoquinolin-2-yl)-2-hydroxy-propyl]-8-(2-oxa-5-azabicyclo[2.2.1]heptan-5-ylmethyl)-2,3-dihydro-1,4-benzoxazepin-5-one]
4 | 100 to 1000 nM | O=C1c2ccc(OCc3cccnc3)cc2OCCN1C[C@H](O)CN1CCc2ccccc2C1 [Example 56, 4-[(2R)-3-(3,4-dihydro-1H-isoquinolin-2-yl)-2-hydroxy-propyl]-8-(3-pyridylmethoxy)-2,3-dihydro-1,4-benzoxazepin-5-one]
5 | 1 to 100 nM | O=C1c2ccc(OCc3ccncc3)cc2OCCN1C[C@H](O)CN1CCc2ccccc2C1 [Example 57, 4-[(2R)-3-(3,4-dihydro-1H-isoquinolin-2-yl)-2-hydroxy-propyl]-8-(4-pyridylmethoxy)-2,3-dihydro-1,4-benzoxazepin-5-one]
6 | 1 to 100 nM | O=C1c2ccc(OCc3ccnc(F)c3)cc2OCCN1C[C@H](O)CN1CCc2ccccc2C1 [Example 58, 4-[(2R)-3-(3,4-dihydro-1H-isoquinolin-2-yl)-2-hydroxy-propyl]-8-[(2-fluoro-4-pyridyl)methoxy]-2,3-dihydro-1,4-benzoxazepin-5-one]
7 | 100 to 1000 nM | O=C1c2ccc(OCc3cc(Cl)nc(Cl)c3)cc2OCCN1C[C@H](O)CN1CCc2ccccc2C1 [Example 59, 8-[(2,6-dichloro-4-pyridyl)methoxy]-4-[(2R)-3-(3,4-dihydro-1H-isoquinolin-2-yl)-2-hydroxy-propyl]-2,3-dihydro-1,4-benzoxazepin-5-one]
8 | 100 to 1000 nM | O=C1c2ccc(OCc3ccnc(F)c3F)cc2OCCN1C[C@H](O)CN1CCc2ccccc2C1 [Example 60, 8-[(2,3-difluoro-4-pyridyl)methoxy]-4-[(2R)-3-(3,4-dihydro-1H-isoquinolin-2-yl)-2-hydroxy-propyl]-2,3-dihydro-1,4-benzoxazepin-5-one]
9 | 100 to 1000 nM | O=C1c2ccc(OCc3ccc(F)nc3)cc2OCCN1C[C@H](O)CN1CCc2ccccc2C1 [Example 61, 4-[(2R)-3-(3,4-dihydro-1H-isoquinolin-2-yl)-2-hydroxy-propyl]-8-[(6-fluoro-3-pyridyl)methoxy]-2,3-dihydro-1,4-benzoxazepin-5-one]
10 | 1 to 100 nM | O=C1c2ccc(OCc3ccncc3F)cc2OCCN1C[C@H](O)CN1CCc2ccccc2C1 [Example 62, 4-[(2R)-3-(3,4-dihydro-1H-isoquinolin-2-yl)-2-hydroxy-propyl]-8-[(3-fluoro-4-pyridyl)methoxy]-2,3-dihydro-1,4-benzoxazepin-5-one]
11 | 1 to 100 nM | O=C1c2ccc(OCc3ccc(F)cn3)cc2OCCN1C[C@H](O)CN1CCc2ccccc2C1 [Example 63, 4-[(2R)-3-(3,4-dihydro-1H-isoquinolin-2-yl)-2-hydroxy-propyl]-8-[(5-fluoro-2-pyridyl)methoxy]-2,3-dihydro-1,4-benzoxazepin-5-one]
12 | 1 to 100 nM | O=C1c2ccc(OC3CCOCC3)cc2OCCN1C[C@H](O)CN1CCc2ccccc2C1 [Example 64, 4-[(2R)-3-(3,4-dihydro-1H-isoquinolin-2-yl)-2-hydroxy-propyl]-8-tetrahydropyran-4-yloxy-2,3-dihydro-1,4-benzoxazepin-5-one]
13 | 100 to 1000 nM | O=C1c2ccc(OCC3CCCCO3)cc2OCCN1C[C@H](O)CN1CCc2ccccc2C1 (stereo partly drawn) [Example 65, 4-[(2R)-3-(3,4-dihydro-1H-isoquinolin-2-yl)-2-hydroxy-propyl]-8-(tetrahydropyran-2-ylmethoxy)-2,3-dihydro-1,4-benzoxazepin-5-one]
14 | 100 to 1000 nM | O=C1c2ccc(OCC3CCCCC3)cc2OCCN1C[C@H](O)CN1CCc2ccccc2C1 [Example 66, 8-(cyclohexylmethoxy)-4-[(2R)-3-(3,4-dihydro-1H-isoquinolin-2-yl)-2-hydroxy-propyl]-2,3-dihydro-1,4-benzoxazepin-5-one]
15 | 100 to 1000 nM | O=C1c2ccc(OCC3CCCO3)cc2OCCN1C[C@H](O)CN1CCc2ccccc2C1 (stereo partly drawn) [Example 67, 4-[(2R)-3-(3,4-dihydro-1H-isoquinolin-2-yl)-2-hydroxy-propyl]-8-(tetrahydrofuran-2-ylmethoxy)-2,3-dihydro-1,4-benzoxazepin-5-one]
16 | 100 to 1000 nM | CN1CCCC(Oc2ccc3c(c2)OCCN(C[C@H](O)CN2CCc4ccccc4C2)C3=O)C1 (stereo partly drawn) [Example 68, 4-[(2R)-3-(3,4-dihydro-1H-isoquinolin-2-yl)-2-hydroxy-propyl]-8-[(1-methyl-3-piperidyl)oxy]-2,3-dihydro-1,4-benzoxazepin-5-one]
17 | 1 to 100 nM | CCN1CCCC(Oc2ccc3c(c2)OCCN(C[C@H](O)CN2CCc4ccccc4C2)C3=O)C1 (stereo partly drawn) [Example 69, 4-[(2R)-3-(3,4-dihydro-1H-isoquinolin-2-yl)-2-hydroxy-propyl]-8-[(1-ethyl-3-piperidyl)oxy]-2,3-dihydro-1,4-benzoxazepin-5-one]
18 | 100 to 1000 nM | CC(=O)N1CCC(COc2ccc3c(c2)OCCN(C[C@H](O)CN2CCc4ccccc4C2)C3=O)CC1 [Example 70, 8-[(1-acetyl-4-piperidyl)methoxy]-4-[(2R)-3-(3,4-dihydro-1H-isoquinolin-2-yl)-2-hydroxy-propyl]-2,3-dihydro-1,4-benzoxazepin-5-one]
19 | 100 to 1000 nM | O=C1c2ccc(OCC(F)(F)F)cc2OCCN1C[C@H](O)CN1CCc2ccccc2C1 [Example 71, 4-[(2R)-3-(3,4-dihydro-1H-isoquinolin-2-yl)-2-hydroxy-propyl]-8-(2,2,2-trifluoroethoxy)-2,3-dihydro-1,4-benzoxazepin-5-one]
20 | 100 to 1000 nM | CN(C)CCOc1ccc2c(c1)OCCN(C[C@H](O)CN1CCc3ccccc3C1)C2=O [Example 72, 4-[(2R)-3-(3,4-dihydro-1H-isoquinolin-2-yl)-2-hydroxy-propyl]-8-[2-(dimethylamino)ethoxy]-2,3-dihydro-1,4-benzoxazepin-5-one]
21 | 100 to 1000 nM | O=C1c2ccc(OCCN3CCOCC3)cc2OCCN1C[C@H](O)CN1CCc2ccccc2C1 [Example 73, 4-[(2R)-3-(3,4-dihydro-1H-isoquinolin-2-yl)-2-hydroxy-propyl]-8-(2-morpholinoethoxy)-2,3-dihydro-1,4-benzoxazepin-5-one]
22 | 100 to 1000 nM | O=C1CCCN1CCOc1ccc2c(c1)OCCN(C[C@H](O)CN1CCc3ccccc3C1)C2=O [Example 74, 4-[(2R)-3-(3,4-dihydro-1H-isoquinolin-2-yl)-2-hydroxy-propyl]-8-[2-(2-oxopyrrolidin-1-yl)ethoxy]-2,3-dihydro-1,4-benzoxazepin-5-one]
23 | 100 to 1000 nM | CCN(CC)C(=O)COc1ccc2c(c1)OCCN(C[C@H](O)CN1CCc3ccccc3C1)C2=O [Example 75, 2-[[4-[(2R)-3-(3,4-dihydro-1H-isoquinolin-2-yl)-2-hydroxy-propyl]-5-oxo-2,3-dihydro-1,4-benzoxazepin-8-yl]oxy]-N,N-diethyl-acetamide]
24 | 100 to 1000 nM | O=C1CCC(Oc2ccc3c(c2)OCCN(C[C@H](O)CN2CCc4ccccc4C2)C3=O)CN1 (stereo partly drawn) [Example 76, 4-[(2R)-3-(3,4-dihydro-1H-isoquinolin-2-yl)-2-hydroxy-propyl]-8-[(6-oxo-3-piperidyl)oxy]-2,3-dihydro-1,4-benzoxazepin-5-one]
25 | 1 to 100 nM | CC(C)(C)OC(=O)N1CCC(Oc2ccc3c(c2)OCCN(C[C@H](O)CN2CCc4ccccc4C2)C3=O)CC1 [Example 77, tert-butyl 4-[[4-[(2R)-3-(3,4-dihydro-1H-isoquinolin-2-yl)-2-hydroxy-propyl]-5-oxo-2,3-dihydro-1,4-benzoxazepin-8-yl]oxy]piperidine-1-carboxylate]
26 | 1 to 100 nM | CC(=O)N1CCC(Oc2ccc3c(c2)OCCN(C[C@H](O)CN2CCc4ccccc4C2)C3=O)CC1 [Example 78, 8-[(1-acetyl-4-piperidyl)oxy]-4-[(2R)-3-(3,4-dihydro-1H-isoquinolin-2-yl)-2-hydroxy-propyl]-2,3-dihydro-1,4-benzoxazepin-5-one]

Source: patent US11111237B2, “Bicyclic compound and use thereof” (SK BIOPHARMACEUTICALS CO., LTD., priority 2019, dated 2021)
